Test results reported in the supplement of paper PMC13380429.

Experiments:
Settings in all cases: 72 h
U2OS [1] = assay: relative viability EC50 (midpoint between 100% and the lowest measured viability); higher = less toxic
Calu-3 [2] = assay: as above
HepG2 [3] = assay: as above
Caco-2 [4] = assay: as above
Vero E6 [5] = assay: as above
U2OS [6] = assay: cell viability relative to DMSO; higher = less toxic
Calu-3 [7] = assay: as above
HepG2 [8] = assay: as above
Caco-2 [9] = assay: as above
Vero E6 [10] = assay: as above
U2OS [11] = assay: drug sensitivity score (DSS) for viability; higher = more toxic; extreme values may be limits of the assay
Calu-3 [12] = assay: as above
HepG2 [13] = assay: as above
Caco-2 [14] = assay: as above
Vero E6 [15] = assay: as above

Compound | relative viability EC50 (U2OS [1]) [µM] | relative viability EC50 (Calu-3 [2]) [µM] | relative viability EC50 (HepG2 [3]) [µM] | relative viability EC50 (Caco-2 [4]) [µM] | relative viability EC50 (Vero E6 [5]) [µM] | cell viability (U2OS [6]; 1 nM) [%] | cell viability (U2OS [6]; 10 nM) [%] | cell viability (U2OS [6]; 100 nM) [%] | cell viability (U2OS [6]; 1000 nM) [%] | cell viability (U2OS [6]; 10000 nM) [%] | cell viability (Calu-3 [7]; 1 nM) [%] | cell viability (Calu-3 [7]; 10 nM) [%] | cell viability (Calu-3 [7]; 100 nM) [%] | cell viability (Calu-3 [7]; 1000 nM) [%] | cell viability (Calu-3 [7]; 10000 nM) [%] | cell viability (HepG2 [8]; 1 nM) [%] | cell viability (HepG2 [8]; 10 nM) [%] | cell viability (HepG2 [8]; 100 nM) [%] | cell viability (HepG2 [8]; 1000 nM) [%] | cell viability (HepG2 [8]; 10000 nM) [%] | cell viability (Caco-2 [9]; 1 nM) [%] | cell viability (Caco-2 [9]; 10 nM) [%] | cell viability (Caco-2 [9]; 100 nM) [%] | cell viability (Caco-2 [9]; 1000 nM) [%] | cell viability (Caco-2 [9]; 10000 nM) [%] | cell viability (Vero E6 [10]; 1 nM) [%] | cell viability (Vero E6 [10]; 10 nM) [%] | cell viability (Vero E6 [10]; 100 nM) [%] | cell viability (Vero E6 [10]; 1000 nM) [%] | cell viability (Vero E6 [10]; 10000 nM) [%] | drug sensitivity score (U2OS [11]) | drug sensitivity score (Calu-3 [12]) | drug sensitivity score (HepG2 [13]) | drug sensitivity score (Caco-2 [14]) | drug sensitivity score (Vero E6 [15])
C[Se]C[C@H](N)C(=O)O [Se-methylselenocysteine] | > 10 | > 10 | > 10 | > 10 | > 10 | 92.4 | 102 | 95.5 | 99.7 | 97.7 | 108 | 113 | 98.1 | 109 | 96.4 | 101 | 101 | 104 | 93 | 108 | 94.3 | 99.1 | 97.2 | 102 | 91.4 | 104 | 100 | 99.2 | 102 | 101 | 0 | 0 | 0 | 0 | 0
Clc1ccccc1C(c1ccccc1)(c1ccccc1)n1cccn1 [TRAM-34] | > 10 | > 10 | > 10 | > 10 | > 10 | 97.6 | 98.4 | 101 | 99.2 | 99 | 104 | 104 | 106 | 93.4 | 103 | 107 | 96.5 | 93.5 | 98.4 | 104 | 95.8 | 89 | 99 | 99 | 90.1 | 104 | 111 | 97.6 | 104 | 98.9 | 0 | 0 | 0 | 0 | 0
N#CC(c1ccccc1)(c1ccccc1)c1ccccc1Cl [TRAM-39] | > 10 | > 10 | > 10 | > 10 | > 10 | 101 | 96.5 | 95.7 | 97.3 | 94.3 | 93.8 | 93 | 107 | 106 | 92.9 | 105 | 102 | 93.7 | 92.7 | 103 | 94.3 | 93.2 | 90.8 | 96.9 | 92.6 | 103 | 97.8 | 97.8 | 95.2 | 98.5 | 0 | 0 | 0 | 0 | 0
CCOC(=O)c1ccc(-c2ccc(OC(=O)N(C)Cc3cccc(-c4ccncc4)c3)cc2)cc1 [WWL-113] | > 10 | > 10 | 3.7 | > 10 | > 10 | 104 | 97.3 | 98.9 | 95.9 | 97.8 | 108 | 93.6 | 108 | 99.1 | 106 | 100 | 106 | 96.5 | 107 | 38.1 | 97.4 | 102 | 105 | 96.5 | 92.8 | 94.7 | 98.4 | 92.5 | 99.6 | 91.4 | 0 | 0 | 2.9 | 0 | 0
Cc1cc(C)nc(NS(=O)(=O)c2ccc(NC(=S)NC(=O)COc3ccc(Br)cc3Cl)cc2)n1 [ZCL-278] | > 10 | > 10 | > 10 | > 10 | > 10 | 95.6 | 100 | 93.5 | 97.9 | 93.8 | 98.4 | 94.8 | 103 | 104 | 107 | 108 | 98.1 | 100 | 96.4 | 98.4 | 97.7 | 102 | 104 | 92.2 | 98.7 | 93.4 | 97.5 | 101 | 103 | 95.9 | 0 | 0 | 0 | 0 | 0
CC(=O)N[C@@H](CS)C(=O)O [acetylcysteine] | > 10 | > 10 | > 10 | > 10 | > 10 | 99.1 | 97.2 | 100 | 95.5 | 102 | 101 | 101 | 93 | 96.2 | 104 | 99.2 | 103 | 94.9 | 103 | 104 | 105 | 87.1 | 98.1 | 101 | 100 | 104 | 106 | 102 | 103 | 97.8 | 0 | 0 | 0 | 0 | 0
COc1cc(C)c(/C=C/C(C)=C/C=C/C(C)=C/C(=O)O)c(C)c1C [acitretin] | > 10 | > 10 | > 10 | > 10 | > 10 | 100 | 101 | 94.4 | 93.7 | 92.1 | 97.5 | 94.8 | 83.9 | 83.5 | 75.3 | 101 | 96.7 | 98.7 | 106 | 105 | 89.3 | 93.2 | 99.3 | 89.4 | 91.4 | 103 | 99.6 | 99.6 | 99.3 | 102 | 0 | 3.8 | 0 | 0 | 0
Nc1cc(-c2ccncc2)c[nH]c1=O [amrinone] | > 10 | > 10 | > 10 | > 10 | > 10 | 104 | 98.3 | 105 | 98.9 | 108 | 94.9 | 95.7 | 93.7 | 93.9 | 109 | 96.2 | 100 | 104 | 97.8 | 97.3 | 96.2 | 97.1 | 92.4 | 91.8 | 95.9 | 95.5 | 96.2 | 86.6 | 100 | 106 | 0 | 0 | 0 | 0 | 0
Cc1cc2ncc(C(=O)NCC(C)(C)NCC(=O)N3CCC[C@H]3C#N)cn2n1 [anagliptin] | > 10 | > 10 | > 10 | > 10 | > 10 | 99.9 | 101 | 96.2 | 104 | 98.5 | 97.3 | 102 | 94.9 | 94.6 | 98.8 | 102 | 94.2 | 102 | 104 | 97.9 | 103 | 93.3 | 94.6 | 97.8 | 100 | 99.2 | 99.5 | 102 | 98.8 | 106 | 0 | 0 | 0 | 0 | 0
OC[C@H]1O[C@H]([S-])[C@H](O)[C@@H](O)[C@@H]1O.[Au+] [aurothioglucose] | 2.24 | > 10 | > 10 | > 10 | > 10 | 96.1 | 98.4 | 98.7 | 91.8 | 27.4 | 101 | 92.1 | 97.3 | 106 | 100 | 90.4 | 106 | 106 | 120 | 97.5 | 108 | 92.2 | 98.7 | 91.3 | 84.2 | 87.3 | 91.2 | 86.7 | 89.5 | 117 | 5.4 | 0 | 0 | 0.5 | 0
CN(C)C(=O)Oc1cc(OC(=O)N(C)C)cc(C(O)CNC(C)(C)C)c1 (stereo not given) [bambuterol] | > 10 | > 10 | > 10 | > 10 | > 10 | 96.4 | 93.5 | 95.5 | 101 | 104 | 95.8 | 98.6 | 99.2 | 89.4 | 117 | 96.1 | 97.2 | 99.1 | 96.9 | 95.6 | 97.7 | 94.5 | 89.6 | 103 | 104 | 99.8 | 97.9 | 93.1 | 90.3 | 101 | 0 | 0 | 0 | 0 | 0
O=C(/C=C/c1cccc(S(=O)(=O)Nc2ccccc2)c1)NO [belinostat] | 0.29 | 0.506 | 0.406 | 0.412 | 0.252 | 94.6 | 94.9 | 81.9 | 16 | 0.9 | 90.7 | 89.2 | 86.6 | 41 | 9.9 | 98.5 | 98.7 | 87.6 | 22.4 | 0.3 | 87.9 | 96.6 | 89.3 | 21.6 | 0.6 | 93.2 | 92.9 | 83.4 | 8.4 | 0.1 | 17.7 | 13.1 | 16 | 15.9 | 18.8
CC[C@H](CC[C@@H](C)[C@H]1CC[C@H]2[C@@H]3CC=C4C[C@@H](O)CC[C@]4(C)[C@H]3CC[C@]12C)C(C)C [beta-Sitosterol] | > 10 | > 10 | > 10 | > 10 | > 10 | 96.4 | 99.1 | 99.6 | 101 | 97.4 | 91.6 | 105 | 99 | 93.7 | 106 | 88.3 | 114 | 93.3 | 98.8 | 109 | 95.1 | 108 | 99.4 | 97.6 | 107 | 92.7 | 105 | 92.4 | 99.2 | 108 | 0 | 0 | 0 | 0 | 0
COC(=O)/C=C/C(=O)N[C@@H]1CC[C@@]2(O)[C@H]3Cc4ccc(O)c5c4[C@@]2(CCN3CC2CC2)[C@H]1O5 [beta-funaltrexamine] | > 10 | > 10 | > 10 | > 10 | > 10 | 104 | 98.7 | 101 | 96.3 | 89.9 | 95.2 | 99.5 | 101 | 102 | 99.6 | 93.6 | 92.8 | 92.4 | 90.6 | 89.2 | 104 | 91.5 | 90 | 94.8 | 82.4 | 92.4 | 96.1 | 93.1 | 105 | 101 | 0 | 0 | 0 | 0.7 | 0
